Consider one cell line from the supplement of paper PMC10307832.

Holding throughout (assay): relative viability (nuclei count vs DMSO), 5 days (fraction); higher = more cells survive
Compound in test [1]: C1COCCN1C2=NC(=NC3=C2OC4=C3C=CC=N4)C5=CC(=CC=C5)NC(=O)C6=CN=C(C=C6)N + C[C@]1(O)C[C@@H](c2nc(-c3ccc4ccc(-c5ccccc5)nc4c3)c3c(N)nccn32)C1 [Linsitinib] (partner 1 µM)
Summed up:
(§1)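 For relative viability, nuclei counts in treated wells were divided by those in vehicle wells. Lung cancer cell lines had been pin-tool dosed in 1536-well plates the day after seeding and cultured for 5 days, then fixed and stained in one step (final 0.05% Triton X-100, 1% formaldehyde, 1 ug/ml Hoechst) and imaged at 4×. Doses were one drug alone or a fixed anchor-drug dose plus five library-drug doses (not always all listed) in √10 steps, and values are duplicate-plate medians.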

Compound in test [2]: CN1CCC(CNc2ccc3ncc(-c4cccc(OC(F)(F)F)c4)n3n2)CC1 [SGI-1776] + CS(=O)(=O)N1CCN(Cc2cc3nc(-c4cccc5[nH]ncc45)nc(N4CCOCC4)c3s2)CC1 [Pictilisib] (partner 1 µM)
Summed up:
as §1

Compound in test [3]: Nc1ccccc1NC(=O)c1ccc(CNC(=O)OCc2cccnc2)cc1 [Entinostat] + COc1cccc2cc(-c3nc([C@H]4CC[C@H](C(=O)O)CC4)n4ncnc(N)c34)[nH]c12 [OSI-027] (partner 0.5 µM)
The method in brief:
as §1

Compound in test [4]: Nc1ccccc1NC(=O)c1ccc(CNC(=O)OCc2cccnc2)cc1 [Entinostat] + N=C(N)NC(=N)NCCc1ccccc1 [Phenformin] (partner 250 µM)
The method in brief: as §1

UMC-11: the relative viability in test [1] (first compound 0.02 µM) came to 0.966; in test [1] (first compound 0.06325 µM), 1.04; in test [1] (first compound 0.2 µM) it was 1.11; in test [1] (first compound 0.6325 µM), 1.34; in test [1] (first compound 2 µM) it was 0.666; in test [2] (first compound 0.08 µM) it was 0.791. Also, the relative viability in test [2] (first compound 0.8 µM) was found to be 0.987; in test [2] (first compound 2.53 µM), 0.812; in test [2] (first compound 8 µM), 0.498; in test [3] (first compound 0.02 µM), 0.445; in test [3] (first compound 0.06325 µM), 0.499; in test [3] (first compound 0.2 µM) it was 0.388. In addition, the relative viability stood at 0.207 in test [3] (first compound 0.6325 µM); 0.213 in test [3] (first compound 2 µM); 0.307 in test [4] (first compound 0.02 µM); 0.334 in test [4] (first compound 0.06325 µM); 0.347 in test [4] (first compound 0.2 µM); 0.21 in test [4] (first compound 0.6325 µM). Also, in test [4] (first compound 2 µM), the relative viability turned out to be 0.188.
